Measured values reported in patent publication US11274124B2, “Tubulysin analogues as anticancer agents and payloads for antibody-drug conjugates and methods of treatment therewith” (William Marsh Rice University, priority 2017, dated 2022).
Where two headings read alike, the source gives them in different places.

Experiments:
[1] = system: MES SA (uterine sarcoma cell line); assay: In vitro cytotoxicity assay (CellTiter-Glo, 72 hours), MES SA; assay type: cell-based; details: Homo sapiens, MES-SA, 72 h
[2] = system: MES SA DX (MES SA cell line with marked multi-drug resistance); assay: In vitro cytotoxicity assay (CellTiter-Glo, 72 hours), MES SA DX; details: Homo sapiens, MES-SA, 72 h
[3] = system: MES SA, MES SA DX and HEK 293T cells; assay: In vitro cytotoxicity assay, structure-activity discussion over the cell lines tested; details: refers to Tables 2 and 3
[4] = system: HEK 293T (human embryonic kidney cancer cell line); assay: In vitro cytotoxicity assay (CellTiter-Glo, 72 hours), HEK 293T; assay type: cell-based; details: Homo sapiens, HEK-293T, 72 h
[5] = read-out: MES SA, IC50 Value in nM
[6] = read-out: MES SA DX, IC50 Value in nM
[7] = read-out: HEK 293T, IC50 Value in nM

SMILES | IC50 [1, 5] [nM] | IC50 [2, 6] [nM] | cytotoxicity potency (in words, structure-activity discussion) [3] | IC50 [4, 7] [nM] | IC50 ([1]; read-out: MES SA, IC50) [nM] | IC50 ([2]; read-out: MES SA DX, IC50) [nM] | IC50 ([4]; read-out: HEK 293T, IC50) [nM]
CCCCN1CCCC[C@@H]1C(=O)N[C@H](C(=O)N(C)[C@H](C[C@@H](OC(C)=O)c1nc(C(=O)N[C@H]2CC[C@H](C(=O)OC)CC2)cs1)C(C)C)C(C)C [Tb54, Methyl trans-4-[({2-[(1R,3R)-1-acetoxy-3-{[(2S)-2-({[(2R)-1-butylpiperidin-2-yl]carbonyl}amino)-3-methylbutanoyl](methyl)amino}-4-methylpentyl]-1,3-thiazol-4-yl}carbonyl)amino]cyclohexanecarboxylate] | > 1000 | > 1000 | insignificant or low biological activity | > 1000 |  |  | 
COC(=O)[C@@H](C)C[C@H](Cc1ccccc1)NC(=O)c1nc([C@@H](C[C@H](C(C)C)N(C)C(=O)[C@@H](NC(=O)[C@H]2CCCCN2C)C(C)C)OC(C)=O)sc1C(C)C [Tb72, Methyl (2S,4R)-4-[({2-[(1R,3R)-1-acetoxy-4-methyl-3-{methyl[(2S)-3-methyl-2-({[(2R)-1-methyl-piperidin-2-yl]carbonyl}amino)butanoyl]amino}pentyl]-5-isopropyl-1,3-thiazol-4-yl}carbonyl)-amino]-2-methyl-5-phenylpentanoate] | 11.7 | > 70 | significant loss of potency | 4.02 |  |  | 
CCOC(=O)[C@@H](C)C[C@H](Cc1ccccc1)NC(=O)c1csc([C@@H](C[C@H](C(C)C)N(C)C(=O)[C@H](CC)NC(=O)[C@H]2CCCCN2C)OC(C)=O)n1 [Tb93, Ethyl (2S,4R)-4-[({2-[(1R,3R)-1-acetoxy-4-methyl-3-{methyl[(2S)-2-({[(2R)-1-methylpiperidin-2-yl]-carbonyl}amino)butanoyl]amino}pentyl]-1,3-thiazol-4-yl}carbonyl)amino]-2-methyl-5-phenylpentanoate] | 0.15 | 31.9 | significant potencies | 0.2 | 0.15 | 31.9 | 0.2
COC(=O)[C@@H](C)C[C@H](Cc1ccc(F)cc1)NC(=O)c1csc([C@@H](C[C@H](C(C)C)N(C)C(=O)[C@@H](NC(=O)[C@H]2CCCCN2C)C2CC2)OC(C)=O)n1 [Tb101, Methyl (2S,4R)-4-[({2-[(1R,3R)-1-acetoxy-3-{[(2S)-2-cyclopropyl-2-({[(2R)-1-methylpiperidin-2-yl]-carbonyl}amino)acetyl](methyl)amino}-4-methylpentyl]-1,3-thiazol-4-yl}carbonyl)amino]-5-(4-fluorophenyl)-2-methylpentanoate] | > 1000 | > 1000 | loss of activity | > 1000 |  |  | 
COC(=O)CC[C@H](Cc1ccccc1)NC(=O)c1csc([C@@H](C[C@H](C(C)C)N(C)C(=O)[C@@H](NC(=O)[C@H]2CCCCN2C)C(C)C)OC(C)=O)n1 [Tb105, Methyl 4-{[(2-{1-acetoxy-4-methyl-3-[methyl(3-methyl-2-{[(1-methylpiperidin-2-yl)carbonyl]-amino}butanoyl)amino]pentyl}-1,3-thiazol-4-yl)carbonyl]amino}-5-phenylpentanoate] | 2.94 | > 1000 | considerable loss of activity | 1.53 |  |  | 
CC(C)[C@H](NC(=O)[C@H]1CCCCN1C)C(=O)N(C)[C@H](CC(=O)c1nc(C(=O)N[C@@H](Cc2ccccc2)C[C@H](C)C(=O)O)cs1)C(C)C [Tb62, (2S,4R)-2-Methyl-4-[({2-[(3R)-4-methyl-3-{methyl[(2S)-3-methyl-2-({[(2R)-1-methylpiperidin-2-yl]-carbonyl}amino)butanoyl]amino}pentanoyl]-1,3-thiazol-4-yl}carbonyl)amino]-5-phenylpentanoic acid] | > 1000 | > 1000 | significant reduction in potency | > 1000 |  |  | 
CC(=O)O[C@H](C[C@H](C(C)C)N(C)C(=O)[C@@H](NC(=O)[C@H]1CCCCN1C)C(C)C)c1nc(C(=O)N[C@@H](Cc2ccccc2)C[C@H](C)C(=O)O)c(C(C)C)s1 [Tb73, (2S,4R)-4-[({2-[(1R,3R)-1-Acetoxy-4-methyl-3-{methyl[(2S)-3-methyl-2-({[(2R)-1-methylpiperidin-2-yl]carbonyl}amino)butanoyl]amino}pentyl]-5-isopropyl-1,3-thiazol-4-yl}carbonyl)amino]-2-methyl-5-phenylpentanoic acid] | 1.28 | 44.7 | significant loss of potency | 0.16 | 1.28 | 44.7 | 0.16
CC[C@H](C)[C@H](NC(=O)[C@H]1CCCCN1C)C(=O)N(C)[C@H](C[C@@H](O)c1nc(C(=O)N[C@@H](Cc2ccccc2)C[C@H](C)C(=O)O)cs1)C(C)C [Tb58, (2S,4R)-4-[({2-[(1R,3R)-1-Hydroxy-4-methyl-3-{methyl[(2S,3S)-3-methyl-2-({[(2R)-1-methylpiperidin-2-yl]carbonyl}amino)pentanoyl]amino}pentyl]-1,3-thiazol-4-yl}carbonyl)amino]-2-methyl-5-phenylpentanoic acid] | > 1000 | > 1000 | significant reduction in potency | > 1000 |  |  | 
CCCCN1CCCC[C@@H]1C(=O)N[C@H](C(=O)N(C)[C@H](C[C@@H](OC(C)=O)c1nc(C(=O)N[C@H]2CC[C@H](C(=O)O)CC2)cs1)C(C)C)C(C)C [Tb55, trans-4-[({2-[(1R,3R)-1-Acetoxy-3-{[(2S)-2-({[(2R)-1-butylpiperidin-2-yl]carbonyl}amino)-3-methylbutanoyl](methyl)amino}-4-methylpentyl]-1,3-thiazol-4-yl}carbonyl)amino]cyclohexanecarboxylic acid] | > 1000 | > 1000 | insignificant or low biological activity | > 1000 |  |  | 
COC(=O)C12CC(NC(=O)c3csc([C@@H](C[C@H](C(C)C)N(C)C(=O)[C@@H](NC(=O)[C@H]4CCCCN4C)C(C)C)OC(C)=O)n3)(C1)C2 [Tb102, Methyl 3-{[(2-{1-acetoxy-4-methyl-3-[methyl(3-methyl-2-{[(1-methylpiperidin-2-yl)carbonyl]amino}-butanoyl)amino]pentyl}-1,3-thiazol-4-yl)carbonyl]amino}bicyclo[1.1.1]pentane-1-carboxylate] | 0.926 | 54.1 | subnanomolar potencies against two of the cell lines tested | 0.355 | 0.926 | 54.1 | 0.355
COC(=O)[C@@H](C)C[C@H](Cc1ccccc1)NC(=O)c1nc([C@@H](C[C@H](C(C)C)N(C)C(=O)[C@@H](NC(=O)[C@H]2CCCCN2C)C(C)C)OC(C)=O)sc1C [Tb66, Methyl (2S,4R)-4-[({2-[(1R,3R)-1-acetoxy-4-methyl-3-{methyl[(2S)-3-methyl-2-({[(2R)-1-methyl-piperidin-2-yl]carbonyl}amino)butanoyl]amino}pentyl]-5-methyl-1,3-thiazol-4-yl}carbonyl)amino]-2-methyl-5-phenylpentanoate] | 1.03 | > 1000 | some loss of potency | 0.773 |  |  | 
CCOC(=O)[C@@H](C)C[C@H](Cc1ccccc1)NC(=O)c1csc([C@@H](C[C@H](C(C)C)N(C)C(=O)[C@@H](NC(=O)[C@H]2CCCCN2C)C(C)(C)CC)OC(C)=O)n1 [Tb108, Ethyl (2S,4R)-4-[({2-[(1R,3R)-1-acetoxy-3-{[(2S)-3,3-dimethyl-2-({[(2R)-1-methylpiperidin-2-yl]car-bonyl}amino)pentanoyl](methyl)amino}-4-methylpentyl]-1,3-thiazol-4-yl}carbonyl)amino]-2-methyl-5-phenylpentanoate] | 0.95 | 6.08 | exceptional potencies | 0.38 | 0.95 | 6.08 | 0.38
CC[C@H](NC(=O)[C@H]1CCCCN1C)C(=O)N(C)[C@H](C[C@@H](OC(C)=O)c1nc(C(=O)N[C@@H](Cc2ccccc2)C[C@H](C)C(=O)O)cs1)C(C)C [Tb94, (2S,4R)-4-[({2-[(1R,3R)-1-acetoxy-4-methyl-3-{methyl[(2S)-2-({[(2R)-1-methylpiperidin-2-yl]carbonyl}amino)butanoyl]amino}pentyl]-1,3-thiazol-4-yl}carbonyl)amino]-2-methyl-5-phenylpentanoic acid] | 0.46 | 89.8 | significant potencies | 0.4 | 0.46 | 89.8 | 0.4
CCCCN1CCCC[C@@H]1C(=O)N[C@H](C(=O)N(C)[C@H](CCc1nc(C(=O)N[C@@H](Cc2ccccc2)C[C@H](C)C(=O)OC)cs1)C(C)C)[C@@H](C)CC [PTb-D47] | > 1000 | > 1000 | insignificant or low biological activity | > 1000 |  |  | 
